The values that follow are results of earlier work, collected in article PMC5742115, “Pharmacophore Modeling and in Silico/in Vitro Screening for Human Cytochrome P450 11B1 and Cytochrome P450 11B2 Inhibitors” (Frontiers in Chemistry, 2017).

A word on the pIC50: it is the IC50 on a negative log10 scale, so that one unit is a factor of ten.

Data set [1] has as its system CYP11B1. The settings on record: reported activity, supplementary Table 1, read-out: CYP11B1 IC50, cited from earlier work.
The test system of data set [2] is CYP11B2. The settings on record: reported activity, supplementary Table 1, read-out: CYP11B2 IC50, cited from earlier work.

pIC50: −log10 of the molar value. Like-named read-outs stand apart in the source and are kept apart here.

In the case of `C(=C1/CCCc2ccccc21)/c1ccncc1` [CHEMBL360026], the negative-log IC50 (pIC50) was 6.84 in data set [1] (ref Ulmschneider et al., 2005a) and 7.82 in data set [2] (ref Ulmschneider et al., 2005a).
For `COc1ccc2c(c1)CCC/C2=C\c1cccnc1` [CHEMBL362441], the negative-log IC50 (pIC50) in data set [1] (ref Ulmschneider et al., 2005a) was 6.04; in data set [2] (ref Ulmschneider et al., 2005a), 7.24.
Regarding `C(=C1\CCc2ccccc21)/c1cccnc1` [CHEMBL363621], the pIC50 was 7.06 in data set [1] (ref Ulmschneider et al., 2005b) and 7.04 in data set [2] (ref Ulmschneider et al., 2005b).
For `Fc1ccc2c(c1)CC/C2=C/c1cccc2cnccc12` [CHEMBL363849], the pIC50 in data set [1] (ref Ulmschneider et al., 2005b) was 7.59; in data set [2] (ref Ulmschneider et al., 2005b), 7.19.
With `C(=C1/CCc2ccccc21)/c1cccnc1` [CHEMBL364080], the negative-log IC50 (pIC50) in data set [1] (ref Ulmschneider et al., 2005a) was 6.05; in data set [2] (ref Ulmschneider et al., 2005a), 7.96.
With `Fc1cccc2c1CC/C2=C\c1cccnc1` [CHEMBL366490], the negative logarithm of the IC50 (pIC50) in data set [1] (ref Ulmschneider et al., 2005a) is 6.11; in data set [2] (ref Ulmschneider et al., 2005a) it was 7.68.
For the molecule `Brc1ccc2c(c1)CC/C2=C\c1ccncc1` [CHEMBL366773], the negative logarithm of the IC50 (pIC50) in data set [1] (ref Ulmschneider et al., 2005a) is 5.58; in data set [2] (ref Ulmschneider et al., 2005a), 7.62.
In the case of `C(=C1\CCCc2ccccc21)/c1c[nH]cn1` [CHEMBL367719], the negative-log IC50 (pIC50) in data set [1] (ref Ulmschneider et al., 2005b) is 8.48; in data set [2] (ref Ulmschneider et al., 2005b), 8.02.
As for `Clc1cccc2c1CC/C2=C/c1cccnc1` [CHEMBL369623], the pIC50 is 6.18 in data set [1] (ref Ulmschneider et al., 2005a) and 7.51 in data set [2] (ref Ulmschneider et al., 2005a).
`Fc1ccc2c(c1)CC/C2=C\c1cccc2cnccc12` [CHEMBL370530]: the negative-log IC50 (pIC50) in data set [1] (ref Ulmschneider et al., 2005b) was 7.24; in data set [2] (ref Ulmschneider et al., 2005b) it was 7.24.
In the case of `COc1ccc2c(Cl)c(-c3cccnc3)ccc2c1Cl` [CHEMBL381014], the pIC50 in data set [1] (ref Voets et al., 2005) was 5.31; in data set [2] (ref Voets et al., 2005) it was 7.55.
For the molecule `Fc1ccc2c(c1)CC/C2=C/c1cccnc1` [CHEMBL383806], the pIC50 in data set [1] (ref Ulmschneider et al., 2005a) was 6.90; in data set [2] (ref Ulmschneider et al., 2005a), 7.96.
As for `Clc1ccc2c(c1)CC/C2=C\c1cccnc1` [CHEMBL383807], the pIC50 in data set [1] (ref Ulmschneider et al., 2005a) was 5.83; in data set [2] (ref Ulmschneider et al., 2005a) it was 7.59.
Take `c1ccc(-c2csc(Cn3ccnc3)c2)cc1` [CHEMBL403598]: the pIC50 in data set [1] (ref Hille et al., 2011b) was 7.72; in data set [2] (ref Hille et al., 2011b) it was 6.56.
`Fc1ccc2c(c1)CC/C2=C\c1ccncc1` [CHEMBL424960]: the negative-log IC50 (pIC50) is 5.96 in data set [1] (ref Ulmschneider et al., 2005a) and 7.82 in data set [2] (ref Ulmschneider et al., 2005a).
Consider `CCOc1ccc2c(c1)CC/C2=C\c1cccnc1` [CHEMBL425323], for which the negative logarithm of the IC50 (pIC50) in data set [1] (ref Ulmschneider et al., 2005a) is 5.63; in data set [2] (ref Ulmschneider et al., 2005a), 7.10.
For `COC(=O)c1ccc2cc(-c3cccnc3)ccc2c1` [CHEMBL438802], the pIC50 in data set [1] (ref Voets et al., 2005) was 4.98; in data set [2] (ref Voets et al., 2005) it was 7.14.
Regarding `CCOc1cncc(-c2ccc3cc(OC)ccc3c2)c1` [CHEMBL445259], the pIC50 was 6.43 in data set [1] (ref Heim et al., 2008) and 8.29 in data set [2] (ref Heim et al., 2008).
With `CN1C(=O)CCc2cc(-c3cccnc3)ccc21` [CHEMBL446083], the pIC50 in data set [1] (ref Lucas et al., 2008b) is 6.13; in data set [2] (ref Lucas et al., 2008b) it was 8.59.
With `COc1cncc(-c2ccc3cc(OC)ccc3c2)c1` [CHEMBL447591], the negative-log IC50 (pIC50) in data set [1] (ref Heim et al., 2008) is 6.62; in data set [2] (ref Heim et al., 2008), 8.38.
As for `COc1ccc2cc(-c3cncc(CO)c3)ccc2c1` [CHEMBL448064], the pIC50 in data set [1] (ref Heim et al., 2008) was 6.21; in data set [2] (ref Heim et al., 2008), 8.04.
In the case of `COc1ccc2cc(-c3cnccc3CO)ccc2c1` [CHEMBL449894], the pIC50 in data set [1] (ref Heim et al., 2008) was 5.75; in data set [2] (ref Heim et al., 2008), 7.66.
In the case of `CN1C(=O)CCc2cc(-c3cncc4ccccc34)ccc21` [CHEMBL451505], the pIC50 was 8.16 in data set [1] (ref Lucas et al., 2008b) and 10.00 in data set [2] (ref Lucas et al., 2008b).
Turning to `COc1ccc2cc(-c3cnccc3N)ccc2c1` [CHEMBL453169], the negative logarithm of the IC50 (pIC50) was 5.82 in data set [1] (ref Heim et al., 2008) and 7.89 in data set [2] (ref Heim et al., 2008).
Consider `O=C1CCc2cc(-c3cncc4ccccc34)ccc2N1` [CHEMBL456390], for which the negative-log IC50 (pIC50) in data set [1] (ref Lucas et al., 2008b) was 7.48; in data set [2] (ref Lucas et al., 2008b), 9.70.
For the molecule `CCN1C(=O)CCc2cc(-c3cccnc3)ccc21` [CHEMBL457425], the pIC50 in data set [1] (ref Lucas et al., 2008b) is 5.29; in data set [2] (ref Lucas et al., 2008b), 7.66.
Take `O=C1CCc2cc(-c3cccnc3)cc(Cl)c2N1` [CHEMBL457640]: the pIC50 in data set [1] (ref Lucas et al., 2008b) was 5.78; in data set [2] (ref Lucas et al., 2008b), 8.42.
With `COc1cncc(-c2ccc3c(c2)CCC(=O)N3)c1` [CHEMBL457646], the pIC50 in data set [1] (ref Lucas et al., 2008b) is 6.47; in data set [2] (ref Lucas et al., 2008b), 8.57.
With `COc1cncc(-c2ccc3c(c2)CCC(=O)N3C)c1` [CHEMBL457856], the pIC50 is 7.06 in data set [1] (ref Lucas et al., 2008b) and 9.70 in data set [2] (ref Lucas et al., 2008b).
Turning to `COC1CCc2cc(-c3cccnc3)ccc2C1` (centres unmarked) [CHEMBL460178], the negative logarithm of the IC50 (pIC50) in data set [1] (ref Lucas et al., 2008b) was 5.94; in data set [2] (ref Lucas et al., 2008b), 8.48.
With `c1cncc(-c2ccc3c(c2)CCCC3)c1` [CHEMBL461457], the pIC50 in data set [1] (ref Lucas et al., 2008b) was 5.70; in data set [2] (ref Lucas et al., 2008b), 7.54.
